# Non-standard residues stand in square brackets, D forms with d. Residues, ends and D or L forms follow the SMILES beside them. No end group written: not given here. *: point of attachment. Myristoyl = CCCCCCCCCCCCCC(=O)*; Ac6c = NC1(C(=O)O)CCCCC1; Nle = CCCC[C@H](N)C(=O)O; Orn = NCCC[C@H](N)C(=O)O; Ac5c = NC1(C(=O)O)CCCC1
# How the values were obtained:
# [1] = Human plasma half-life assay; type: in vitro ADME; settings: 37° C., LC-MS, read-out: Human Plasma T½ (converted)
# Method: (§1) B. Human and Rat Plasma Half-Life Assay
# (§2) 50 μL was removed at various times, like at 0, 1, 2, 3, 4, 8, 24, 32, 48, 56, 72 hours, mixed with 5 μL formic acid and 150 μL acetonitrile in a microcentrifuge tube, vertexed, and centrifuged for 10 minutes at 10K rpm. The supernatant was transferred to an injection vial and analyzed by LC-MS. The LC-MS system consisted of an API4000 mass spectrometer with an ESI probe. Positive ion mode and full scan detection were used. HPLC separation was carried out on a Luna 3μ C8 (2), 2×30 mm column with a gradient from 90% A to 90% B in 10 minutes at a flow rate of 0.3 ml/min. Buffer A was 1% formic acid in water and buffer B was 1% formic acid acetonitrile.
# [2] = Rat plasma half-life assay; type: in vitro ADME; settings: 37° C., LC-MS, read-out: Rat Plasma T½ (converted)
# Method: as §1, §2
Compound,half-life at 0.1 mg/ml [1],half-life at 0.1 mg/ml [2]
"CCCCCCCCCCCCCCCC(=O)NCCCC[C@H](NC(=O)[C@H](CCC(N)=O)NC(=O)[C@@H](NC(=O)[C@@H](NC(=O)[C@H](CC(N)=O)NC(=O)[C@H](Cc1c[nH]cn1)NC(=O)[C@H](CCCCN)NC(=O)[C@H](Cc1c[nH]c2ccccc12)NC(=O)[C@H](CC(=O)O)NC(=O)[C@H](CC(N)=O)NC(=O)[C@H](CCCCN)NC(=O)[C@H](CCCCN)NC(=O)CNC(=O)[C@H](CCCCN)NC(=O)[C@H](CCC(N)=O)NC(=O)[C@H](C)NC(=O)[C@H](CC(C)C)NC(=O)[C@H](CC(C)C)NC(=O)[C@H](Cc1c[nH]c2ccccc12)NC(=O)[C@H](CC(N)=O)NC(=O)[C@@H](NC(=O)[C@H](Cc1ccccc1)NC(=O)[C@H](CC(=O)O)NC(=O)[C@H](CCC(N)=O)NC(=O)[C@H](CCC(N)=O)NC(=O)[C@H](Cc1c[nH]cn1)NC(=O)[C@@H](NC(=O)[C@H](CCCCN)NC(=O)[C@H](CC(=O)O)NC(=O)[C@H](CCSC)NC(=O)[C@H](C)NC(=O)[C@@H](NC(=O)C1(NC(=O)[C@H](Cc2ccc(O)cc2)NC(=O)[C@H](CC(=O)O)NC(=O)[C@H](CO)NC(=O)[C@@H](NC(=O)[C@H](Cc2ccccc2)NC(=O)[C@@H](NC(=O)CNC(=O)[C@H](CCC(=O)O)NC(=O)[C@H](C)NC(=O)[C@@H](N)Cc2ccc(O)cc2)[C@@H](C)O)[C@@H](C)CC)CCCC1)[C@@H](C)CC)[C@@H](C)CC)C(C)C)[C@@H](C)CC)[C@@H](C)O)C(=O)O [Example 40, [A5c^11, Lys^43(N—C(O)—(CH2)14—CH3)]hGIP(1-43)-OH]",1030 min,1160 min
"CC[C@H](C)[C@H](NC(=O)[C@H](CCCCN)NC(=O)[C@H](CC(=O)O)NC(=O)[C@H](CCSC)NC(=O)[C@H](C)NC(=O)[C@@H](NC(=O)C1(NC(=O)[C@H](Cc2ccc(O)cc2)NC(=O)[C@H](CC(=O)O)NC(=O)[C@H](CO)NC(=O)[C@@H](NC(=O)[C@H](Cc2ccccc2)NC(=O)[C@@H](NC(=O)CNC(=O)[C@H](CCC(=O)O)NC(=O)[C@H](C)NC(=O)[C@@H](N)Cc2ccc(O)cc2)[C@@H](C)O)[C@@H](C)CC)CCCC1)[C@@H](C)CC)C(=O)N[C@@H](Cc1c[nH]cn1)C(=O)N[C@@H](CCC(N)=O)C(=O)N[C@@H](CCC(N)=O)C(=O)N[C@@H](CC(=O)O)C(=O)N[C@@H](Cc1ccccc1)C(=O)N[C@H](C(=O)N[C@@H](CC(N)=O)C(=O)N[C@@H](Cc1c[nH]c2ccccc12)C(=O)N[C@@H](CC(C)C)C(=O)N[C@@H](CC(C)C)C(=O)N[C@@H](C)C(=O)N[C@@H](CCC(N)=O)C(=O)N[C@@H](CCCCN)C(=O)N[C@@H](Cc1c[nH]cn1)C(N)=O)C(C)C [Example 29, (A5c^11, His^31)hGIP(1-31)-NH2] (H-YAEGTFISDY[Ac5c]IAMDKIHQQDFVNWLLAQKH-NH2; N-terminus assumed)",432 min,450 min
"CCCCCCCCCCCC(=O)NCCC[C@H](NC(=O)[C@H](CCCCN)NC(=O)CNC(=O)[C@H](CCCCN)NC(=O)[C@H](CCC(N)=O)NC(=O)[C@H](C)NC(=O)[C@H](CC(C)C)NC(=O)[C@H](CC(C)C)NC(=O)[C@H](Cc1c[nH]c2ccccc12)NC(=O)[C@H](CC(N)=O)NC(=O)[C@@H](NC(=O)[C@H](Cc1ccccc1)NC(=O)[C@H](CC(=O)O)NC(=O)[C@H](CCC(N)=O)NC(=O)[C@H](CCC(N)=O)NC(=O)[C@H](Cc1c[nH]cn1)NC(=O)[C@@H](NC(=O)[C@H](CCCCN)NC(=O)[C@H](CC(=O)O)NC(=O)[C@H](CCSC)NC(=O)[C@H](C)NC(=O)[C@@H](NC(=O)C1(NC(=O)[C@H](Cc2ccc(O)cc2)NC(=O)[C@H](CC(=O)O)NC(=O)[C@H](CO)NC(=O)[C@@H](NC(=O)[C@H](Cc2ccccc2)NC(=O)[C@@H](NC(=O)CNC(=O)[C@H](CCC(=O)O)NC(=O)[C@H](C)NC(=O)[C@@H](N)Cc2ccc(O)cc2)[C@@H](C)O)[C@@H](C)CC)CCCC1)[C@@H](C)CC)[C@@H](C)CC)C(C)C)C(=O)N[C@@H](CC(N)=O)C(=O)N[C@@H](CC(=O)O)C(=O)N[C@@H](Cc1c[nH]c2ccccc12)C(=O)N[C@@H](CCCCN)C(=O)N[C@@H](Cc1c[nH]cn1)C(=O)N[C@@H](CC(N)=O)C(=O)N[C@H](C(=O)N[C@H](C(=O)N[C@@H](CCC(N)=O)C(=O)N[C@@H](Cc1c[nH]cn1)C(=O)O)[C@@H](C)O)[C@@H](C)CC [Example 35, [A5c^11, Orn^33(N—C(O)—(CH2)10—CH3), His^43]hGIP(1-43)-OH]",570 min,1020 min
"CC[C@H](C)[C@H](NC(=O)[C@H](CCCCN)NC(=O)[C@H](CC(=O)O)NC(=O)[C@H](CCSC)NC(=O)[C@H](C)NC(=O)[C@@H](NC(=O)C1(NC(=O)[C@H](Cc2ccc(O)cc2)NC(=O)[C@H](CC(=O)O)NC(=O)[C@H](CO)NC(=O)[C@@H](NC(=O)[C@H](Cc2ccccc2)NC(=O)[C@@H](NC(=O)CNC(=O)[C@H](CCC(=O)O)NC(=O)[C@H](C)NC(=O)[C@@H](N)Cc2ccc(O)cc2)[C@@H](C)O)[C@@H](C)CC)CCCC1)[C@@H](C)CC)C(=O)N[C@@H](Cc1c[nH]cn1)C(=O)N[C@@H](CCC(N)=O)C(=O)N[C@@H](CCC(N)=O)C(=O)N[C@@H](CC(=O)O)C(=O)N[C@@H](Cc1ccccc1)C(=O)N[C@H](C(=O)N[C@@H](CC(N)=O)C(=O)N[C@@H](Cc1c[nH]c2ccccc12)C(=O)N[C@@H](CC(C)C)C(=O)N[C@@H](CC(C)C)C(=O)N[C@@H](C)C(=O)N[C@@H](CCC(N)=O)C(=O)N[C@@H](CCCCN)C(=O)NCC(=O)N[C@@H](CCCCN)C(=O)N[C@@H](CS)C(=O)N[C@@H](CC(N)=O)C(=O)N[C@@H](CC(=O)O)C(=O)N[C@@H](Cc1c[nH]c2ccccc12)C(=O)N[C@@H](CCCCN)C(=O)N[C@@H](Cc1c[nH]cn1)C(=O)N[C@@H](CC(N)=O)C(=O)N[C@H](C(=O)NC1(C(=O)N[C@@H](CCC(N)=O)C(N)=O)CCCC1)[C@@H](C)CC)C(C)C [Example 32, (A5c^11, 41, Cys^33)hGIP(1-42)-NH2]",690 min,528 min
"CCCCCCCCCCCCCCCC(=O)NCCC[C@H](NC(=O)CNC(=O)[C@H](CCCCN)NC(=O)[C@H](CCC(N)=O)NC(=O)[C@H](C)NC(=O)[C@H](CC(C)C)NC(=O)[C@H](CC(C)C)NC(=O)[C@H](Cc1c[nH]c2ccccc12)NC(=O)[C@H](CC(N)=O)NC(=O)[C@@H](NC(=O)[C@H](Cc1ccccc1)NC(=O)[C@H](CC(=O)O)NC(=O)[C@H](CCC(N)=O)NC(=O)[C@H](CCC(N)=O)NC(=O)[C@H](Cc1c[nH]cn1)NC(=O)[C@@H](NC(=O)[C@H](CCCCN)NC(=O)[C@H](CC(=O)O)NC(=O)[C@H](CCSC)NC(=O)[C@H](C)NC(=O)[C@@H](NC(=O)C1(NC(=O)[C@H](Cc2ccc(O)cc2)NC(=O)[C@H](CC(=O)O)NC(=O)[C@H](CO)NC(=O)[C@@H](NC(=O)[C@H](Cc2ccccc2)NC(=O)[C@@H](NC(=O)CNC(=O)[C@H](CCC(=O)O)NC(=O)[C@H](C)NC(=O)[C@@H](N)Cc2ccc(O)cc2)[C@@H](C)O)[C@@H](C)CC)CCCC1)[C@@H](C)CC)[C@@H](C)CC)C(C)C)C(=O)N[C@@H](CCCCN)C(=O)N[C@@H](CC(N)=O)C(=O)N[C@@H](CC(=O)O)C(=O)N[C@@H](Cc1c[nH]c2ccccc12)C(=O)N[C@@H](CCCCN)C(=O)N[C@@H](Cc1c[nH]cn1)C(=O)N[C@@H](CC(N)=O)C(=O)N[C@H](C(=O)N[C@H](C(=O)N[C@@H](CCC(N)=O)C(=O)N[C@@H](Cc1c[nH]cn1)C(=O)O)[C@@H](C)O)[C@@H](C)CC [Example 41, [A5c^11, Orn^32(N—C(O)—(CH2)14—CH3), His^43]hGIP(1-43)-OH]",396 min,1370 min
"YAEGTFISDY[Ac5c]IAMDKIHQQDFVNWLLAQKGKKNDWKHNI[Ac5c]QC-NH2 [Example 33, (A5c^11, 41, Cys^43)hGIP(1-43)-NH2]",948 min,390 min
"H-YAEGTF[Ac6c]SDYSIAMDKIHQQDFVNWLLAQKGKKN[Orn](Myristoyl)WKHNITQ-OH [Example 18, [A6c^7, Orn^35(N—C(O)—(CH2)12—CH3)]hGIP(1-42)-OH]",438 min,1000 min
"YAEGTF[Ac6c]SDYSIA[Nle]DKIHQQDFVNWLLAQKGKKNDWKHNI[Ac6c]Q-OH [Example 17, (A6c^7, 41, Nle^14)hGIP(1-42)-OH]",378 min,114 min
"CCCCCCCCCCCC(=O)NCCCC[C@H](NC(=O)[C@H](CCC(N)=O)NC(=O)[C@@H](NC(=O)[C@@H](NC(=O)[C@H](CC(N)=O)NC(=O)[C@H](Cc1c[nH]cn1)NC(=O)[C@H](CCCCN)NC(=O)[C@H](Cc1c[nH]c2ccccc12)NC(=O)[C@H](CC(=O)O)NC(=O)[C@H](CC(N)=O)NC(=O)[C@H](CCCCN)NC(=O)[C@H](CCCCN)NC(=O)CNC(=O)[C@H](CCCCN)NC(=O)[C@H](CCC(N)=O)NC(=O)[C@H](C)NC(=O)[C@H](CC(C)C)NC(=O)[C@H](CC(C)C)NC(=O)[C@H](Cc1c[nH]c2ccccc12)NC(=O)[C@H](CC(N)=O)NC(=O)[C@@H](NC(=O)[C@H](Cc1ccccc1)NC(=O)[C@H](CC(=O)O)NC(=O)[C@H](CCC(N)=O)NC(=O)[C@H](CCC(N)=O)NC(=O)[C@H](Cc1c[nH]cn1)NC(=O)[C@@H](NC(=O)[C@H](CCCCN)NC(=O)[C@H](CC(=O)O)NC(=O)[C@H](CCSC)NC(=O)[C@H](C)NC(=O)[C@@H](NC(=O)C1(NC(=O)[C@H](Cc2ccc(O)cc2)NC(=O)[C@H](CC(=O)O)NC(=O)[C@H](CO)NC(=O)[C@@H](NC(=O)[C@H](Cc2ccccc2)NC(=O)[C@@H](NC(=O)CNC(=O)[C@H](CCC(=O)O)NC(=O)[C@H](C)NC(=O)[C@@H](N)Cc2ccc(O)cc2)[C@@H](C)O)[C@@H](C)CC)CCCC1)[C@@H](C)CC)[C@@H](C)CC)C(C)C)[C@@H](C)CC)[C@@H](C)O)C(=O)O [Example 36, [A5c^11, Lys^43(N—C(O)—(CH2)10—CH3)]hGIP(1-43)-OH]",888 min,3200 min

# Reference: patent publication US9072703B2 (Ipsen Pharma S.A.S., priority 2008, dated 2015)
